What is called melting point is the temperature, or range, at which the solid turns liquid.

`CCC(CC)Sc1nc2c(c(=O)[nH]c(=O)n2C)n1Cc1cccc(Br)c1` [Compound 29, 7-(3-bromobenzyl)-8-[(1-ethylpropyl)thio]-3-methyl-3,7-dihydro-1H-purine-2,6-dione] yielded a melting point of 167 °C.

Turning to `CCOC(=O)C(CC)Sc1nc2c(c(=O)n(C)c(=O)n2C)n1Cc1cccc(Br)c1` (racemic) [Compound 5, ethyl 2-{[7-(3-bromobenzyl)-1,3-dimethyl-2,6-dioxo-2,3,6,7-tetrahydro-1H-purin-8-yl]thio}butanoate], the melting point came to 76 °C.

For the compound `CCOC(=O)C(CC)Sc1nc2c(c(=O)n(CC#N)c(=O)n2C)n1Cc1cccc(Br)c1` (racemic) [Compound 7, ethyl 2-{[7-(3-bromobenzyl)-1-(cyanomethyl)-3-methyl-2,6-dioxo-2,3,6,7-tetrahydro-1H-purin-8-yl]thio}butanoate], the melting point is 84 °C.

The compound `CCC(Sc1nc2c(c(=O)[nH]c(=O)n2C)n1Cc1cccc(Br)c1)C(N)=O` (racemic) [Compound 27, 2-{[7-(3-bromobenzyl)-3-methyl-2,6-dioxo-2,3,6,7-tetrahydro-1H-purin-8-yl]thio}butanamide] showed a melting point of 244.15 °C.

As for `CCOC(=O)C(CC)Sc1nc2[nH]c(=O)[nH]c(=O)c2n1Cc1cccc(Br)c1` (racemic) [Compound 4, ethyl 2-{[7-(3-bromobenzyl)-2,6-dioxo-2,3,6,7-tetrahydro-1H-purin-8-yl]thio}butanoate], the melting point is 90.1 °C.

In turn, `CCOC(=O)C(CC)Sc1nc2c(c(=O)[nH]c(=O)n2C)n1Cc1c(C)noc1C` (racemic) [Compound 20, ethyl 2-({7-[(3,5-dimethylisoxazol-4-yl)methyl]-3-methyl-2,6-dioxo-2,3,6,7-tetrahydro-1H-purin-8-yl}thio)butanoate] registered a melting point of 208 °C.

With `CCOC(=O)C(CC)Sc1nc2c(c(=O)n(CCOC)c(=O)n2C)n1Cc1cccc(Br)c1` (racemic) [Compound 3, ethyl 2-{[7-(3-bromobenzyl)-1-(2-methoxyethyl)-3-methyl-2,6-dioxo-2,3,6,7-tetrahydro-1H-purin-8-yl]thio}butanoate], the melting point was determined as 58 °C.

As to `CCOC(=O)C(CC)Sc1nc2c(c(=O)[nH]c(=O)n2C)n1Cc1ccc([N+](=O)[O-])o1` (racemic) [Compound 21, ethyl 2-({3-methyl-7-[(5-nitro-2-furyl)methyl]-2,6-dioxo-2,3,6,7-tetrahydro-1H-purin-8-yl}thio)butanoate], the melting point was determined as 172 °C.

Regarding `CCOC(=O)C(CC)Sc1nc2c(c(=O)[nH]c(=O)n2C)n1Cc1cccc(OC)c1` (racemic) [Compound 12, ethyl 2-{[7-(3-methoxybenzyl)-3-methyl-2,6-dioxo-2,3,6,7-tetrahydro-1H-purin-8-yl]thio}butanoate], the melting point stood at 115 °C.

Consider `C#CCn1c(=O)c2c(nc(SC(CC)C(=O)OCC)n2Cc2cccc(Br)c2)n(C)c1=O` (racemic) [Compound 11, ethyl 2-{[7-(3-bromobenzyl)-3-methyl-2,6-dioxo-1-(2-propynyl)-2,3,6,7-tetrahydro-1H-purin-8-yl]thio}butanoate], for which the melting point was found to be 97 °C.

In the case of `CCCCCCn1c(SC(CC)C(=O)OCC)nc2c1c(=O)[nH]c(=O)n2C` (racemic) [Compound 25, ethyl 2-[(7-hexyl-3-methyl-2,6-dioxo-2,3,6,7-tetrahydro-1H-purin-8-yl)thio]butanoate], the melting point worked out at 87 °C.

As for `CCOC(=O)C(CC)Sc1nc2c(c(=O)[nH]c(=O)n2C)n1Cc1cccc([N+](=O)[O-])c1` (racemic) [Compound 13, ethyl 2-{[3-methyl-7-(3-nitrobenzyl)-2,6-dioxo-2,3,6,7-tetrahydro-1H-purin-8-yl]thio}butanoate], the melting point was determined as 147 °C.

With `CCOC(=O)C(CC)Sc1nc2c(c(=O)n(C)c(=O)n2C)n1Cc1ccccc1` (racemic) [Compound 1, ethyl 2-[(7-benzyl-1,3-dimethyl-2,6-dioxo-2,3,6,7-tetrahydro-1H-purin-8-yl)thio]butanoate], the melting point came to 72 °C.

In turn, `CCCCn1c(SC(CC)C(N)=O)nc2c1c(=O)[nH]c(=O)n2C` (racemic) [Compound 28, 2-[(7-butyl-3-methyl-2,6-dioxo-2,3,6,7-tetrahydro-1H-purin-8-yl)thio]butanamide] had a melting point of 253 °C.

Compound `CCOC(=O)C(CC)Sc1nc2c(c(=O)[nH]c(=O)n2C)n1Cc1cccc(N)c1` (racemic) [Compound 14, ethyl 2-{[7-(3-aminobenzyl)-3-methyl-2,6-dioxo-2,3,6,7-tetrahydro-1H-purin-8-yl]thio}butanoate] registered a melting point of 107 °C.

As to `CCOC(=O)C(CC)Sc1nc2c(c(=O)n(C)c(=O)n2C)n1Cc1ccccc1Br` (racemic) [Compound 6, ethyl 2-{[7-(2-bromobenzyl)-1,3-dimethyl-2,6-dioxo-2,3,6,7-tetrahydro-1H-purin-8-yl]thio}butanoate], the melting point was determined as 101 °C.

In turn, `CCOC(=O)C(CC)Sc1nc2c(c(=O)[nH]c(=O)n2C)n1Cc1ccc(S(N)(=O)=O)cc1` (racemic) [Compound 15, ethyl 2-({7-[4-(aminosulfonyl)benzyl]-3-methyl-2,6-dioxo-2,3,6,7-tetrahydro-1H-purin-8-yl}thio)butanoate] returned a melting point of 175.2 °C.

In the case of `CCCCn1c(SC(CC)C(=O)OCC)nc2c1c(=O)[nH]c(=O)n2C` (racemic) [Compound 22, ethyl 2-[(7-butyl-3-methyl-2,6-dioxo-2,3,6,7-tetrahydro-1H-purin-8-yl)thio]butanoate], the melting point amounted to 104 °C.

As to `CCOC(=O)C(CC)Sc1nc2c(c(=O)[nH]c(=O)n2C)n1CC(C)C` (racemic) [Compound 31, ethyl 2-[(7-isobutyl-3-methyl-2,6-dioxo-2,3,6,7-tetrahydro-1H-purin-8-yl)thio]butanoate], the melting point was determined as 132 °C.

The values above are taken from patent US20090018148A1, “Xanthine Derivatives, Processes For Preparing Them And Their Uses” (UCB PHARMA, S.A., priority 2005, published 2009).
